According to paper PMC12765108, “Establishing selectivity of FAK-paxillin PPI inhibitor using pulldown proteomics and a focal adhesion protein selectivity panel” (Biochemistry and Biophysics Reports, 2025):
Entries after “also recorded” stand apart in the source; their conditions may differ.

Key:
FAK FAT domain = system: FAK FAT domain; parameters: method as in PMID 40021642; settings: ref [5]; cited from earlier work
Paxillin = test: Pulldown (MS and WB), SK-MEL-147 lysate; format: binding
Experimental: 3000ug of SK-MEL-147 lysates were precleared in 60uL agarose beads for 1 h at 4C. […] Beads were washed with NP40 buffer without inhibitors and proteins were eluted using 63 mM Tris pH 6.8 and 5 % SDS. Elution proteins underwent trypsin digestion and were analyzed in nanoLC-MS/MS at the UA Biological Mass Spectroscopy Core using the Thermo Q Exactive Orbitrap mass spectrometer (MS) coupled to the Thermo Vanquish Neo nano-LC system. Peptide sequences were determined, correlated to SwissProt protein sequences, and normalized in Scaffold Proteomics Discoverer.
Protein Label Free Quantification (LFQ) was represented by Normalized Total Spectra. Fold Enrichment (FE) was calculated using Eq. (1): FE=(PulldownLFQ−EthanolamineControlBeadLFQ)/TotalLysateLFQ
Bead elutions were ran on a 4–20 % TGX Stain Free Gel and imaged via Stain Free Imaging (ChemDoc Biorad Imager) before transfer onto a PVDF membrane (TurboTransfer High MW). Blots were blocked using 5 % BSA in TBS-0.1 % Tween-20. Each primary antibody was used in 1:1000 dilution and incubated overnight at 4C. Blots were washed 3X and incubated in 1:5000 secondary antibody at RT for 1 h. Blots were incubated with ECL reagent (Biorad) for 5 min. Blots were imaged utilizing ChemDoc Biorad Imager for 3 min taking 60 total images. Results can be found in Supplementary Fig. 2.

FAK FAT (a.a. 892–1052) = target: T1, FAK FAT (a.a. 892–1052) (Homo sapiens, UniProt Q05397); test: SPR direct binding; settings: 4.9 nM to […]
T1 construct: FAK FAT (a.a. 892–1052); 6X His (N); made in house; host or cells: E. coli BL21 DE3
T1 sequence (Q05397 892-1052): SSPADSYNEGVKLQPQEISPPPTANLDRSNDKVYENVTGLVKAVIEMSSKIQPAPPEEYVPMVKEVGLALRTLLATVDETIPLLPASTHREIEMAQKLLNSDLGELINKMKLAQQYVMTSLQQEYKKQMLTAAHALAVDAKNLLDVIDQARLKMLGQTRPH
Text: (§1) Vinculin Tail (VinT) (a.a. 811–1066), Vinculin Head (VinH) (a.a. 1–258), Actopaxin, (PARVA complete protein), beta-parvin (PARVB, total protein), FAK FAT (a.a. 892–1052), and Talin-1 Rod 8 (a.a. 1453–1580) were purified in E. coli BL21 DE3 using 6X-Histag TOPO-100 plasmid constructs with AmpR gene (ThermoFisher). Purification procedures were as previously described. Proteins were purified using NiNTA affinity chromatography (ThermoFisher) followed by size-exclusion chromatography using the Akta Pump 900 system and HiLoad 26/600 SuperDex 75 pg column. Major peaks (Unicorn 3.0 software) were validated using SDS-PAGE stain free imaging (Biorad).
SPR was performed on a Sartorius Pioneer FE instrument as previously described. Briefly, biotinylated UA-1907 was immobilized onto Streptavidin Dextran Hydrogel (SADH) biosensor at a RU = 50. […] Equilibrium dissociation constant (KD) was calculated using Qdat software and 1:1 kinetic binding model.

FAK-paxillin interaction = settings: cellular and biochemical systems; ref [5]; cited from earlier work
[1] = system: FA selectivity panel (VinT, VinH, PARVA, PARVB, Talin-1 Rod 8, FAK FAT); test: SPR focal adhesion selectivity panel; format: binding
Text: as §1
SPR was performed on a Sartorius Pioneer FE instrument as previously described. Briefly, biotinylated UA-1907 was immobilized onto Streptavidin Dextran Hydrogel (SADH) biosensor at a RU = 50. Proteins were flowed over at 75 μL/min in running buffer (50 mM Tris pH 8.0, 200 mM NaCl, 5 % glycerol) from 2.5 μM to 4.9 nM. Equilibrium dissociation constant (KD) was calculated using Qdat software and 1:1 kinetic binding model.

kinome = settings: ref [5]; cited from earlier work
Text: (§2) The most significant finding in this manuscript is the nanomolar, highly specific affinity (Fig. 4g) between UA-1907 and the FAK FAT domain by SPR, but not […], PARVA, PARVB, VinH, and VinT. As previously discussed, the challenge of targeting FAK historically has been the off-target effects of ATP-competitive kinase inhibitors. […] The high selectivity of the FAT domain t ...

[2] = ref [5]; cited from earlier work
Text: as §2

SMILES | binding to FAK FAT domain (FAK FAT domain) | paxillin pulldown (Paxillin) | binding (FAK FAT (a.a. 892–1052)) | inhibition of FAK-paxillin interaction (FAK-paxillin interaction) | binding selectivity across panel [1] | kinome selectivity (kinome) | cellular toxicity [2]
CC(=O)N[C@@H](CC(N)=O)C(=O)N[C@@H](CC(C)C)C(=O)N[C@]1(C)CCCCCC/C=C/CCC[C@@](C)(C(=O)N[C@@H](CCC(=O)O)C(=O)N[C@@H](CC(C)C)C(=O)N[C@@H](CC(N)=O)C(N)=O)NC(=O)[C@H](CC(C)C)NC(=O)[C@H](CC(C)C)NC(=O)[C@H](CCCNC(=N)N)NC(=O)[C@H](CC(=O)O)NC(=O)[C@H](CC(C)C)NC(=O)[C@H](CCC(=O)O)NC1=O [UA-1907] | binds the FAK FAT domain with high affinity | paxillin did not pulldown with UA-1907 | bound to UA-1907 in a dose-dependent manner | dose-dependently inhibits the FAK-paxillin interaction | only the FAK-FAT domain has a nanomolar binding affinity (KD) for UA-1907, whereas other FA proteins have no binding; also recorded: strong nanomolar binding affinity to the FAT domain of FAK, while minimal affinity to other FA proteins |  | 
CNC(=O)c1ccc(Nc2ncc(C(F)(F)F)c(NCc3nccnc3N(C)S(C)(=O)=O)n2)cc1 [defactinib] |  |  |  |  |  | poor kinome selectivity | high cellular toxicity
